According to patent publication US20080020385A1, “Use Of A Genetic Modification In The Human Gnaq Gene For Predicting Risk Of Disease, The Course Of Disease, And Reaction To Treatments” (priority 2004, published 2008):

Assays:
human adipocytes = assay: Inhibition of isoprenaline-induced lipolysis (glycerol release) in human adipocyte cultures; type: cell-based; conditions: human adipocytes ex vivo, by GC(-909/-908)TT genotype
Description: The inhibiting effect of insulin on lipolysis was studied in human adipocyte cultures. For this, lipolysis was induced ex vivo in human adipocytes by isoprenaline, and the inhibiting effect of insulin was studied by adding insulin to the cultures. Lipolysis was quantified by glycerol release (Hauner et al., 2002). […] This coincides with the observation of an increased gene expression of Gq in this genotype.

skin blood circulation = assay: Change of skin blood circulation after injection of vasoconstrictors under the skin; type: in vivo; conditions: injected under the skin of human individuals, by GC(-909/-908)TT genotype
Experimental: As an example for the general usability of the GNAQ GC(−909/−908)TT polymorphism to predict drug actions, the vasoconstrictors angiotensin II, noradrenaline or endothelin were injected under the skin of human individuals, and the following change of blood circulation was recorded (FIG. 18).

GNAQ promoter = assay: SEAP reporter assay of GNAQ promoter construct -798/+89 (GC or TT genotype) in stimulated HEK cells; type: cell-based, human; conditions: construct -798/+89, stimulation with 10 nM angiotensin II, p<0.05
Description: For functional detection of a modified promoter activity in relation to specific genotypes, various fragments of the promoter with the GC or the TT genotype were cloned into the pSEAP vector to quantify the promoter activity after expression of the vector in HEK cells in a so-called reporter assay (FIG. 5). For this assay, constructs are cloned before a gene encoding the secreted alkaline phosphatase (SEAP). If the construct has promoter activity, the SEAP gene will be transcribed more, and the increased secretion of alkaline phosphatase into the cell culture medium can be measured. […] Since the polymorphism is located in this region (−697/−695 relative from the transcription starting point) showing the highest reporter activity, and furthermore a transcription factor binding site is influenced by the nucleic acid exchange, it is now studied if stimulation of HEK cells has an effect on the reporter activity of these constructs. For this, construct −798/+89 was transfected into HEK cells, together with either the GC(−909/−908) or the TT(−909/−908) polymorphism, and the cells were stimulated with serum or angiotensin II (FIG. 6). […] In order to verify if this regulation also occurs in vivo, Gαq expression was analyzed on mRNA level by real time-PCR.

## insulin
Human adipocytes
  inhibiting effect on isoprenaline-induced lipolysis (glycerol release): inhibiting insulin effect was strongest with adipocytes from individuals with GCGC genotype

## NC[C@H](O)c1ccc(O)c(O)c1 [noradrenaline]
Skin blood circulation
  reduction of skin blood circulation: reduction of skin blood circulation is highest for the GC/GC genotype

## angiotensin II (DRVYIHPF; Angiotensin-2; UniProt P01019 25-32, looked up) [hormone, vasoconstrictor]
GNAQ promoter
  promoter activity (secreted alkaline phosphatase), GC genotype compared to TT genotype: two to four times increased promoter activity compared to the TT genotype
Skin blood circulation
  reduction of skin blood circulation: reduction of skin blood circulation is highest for the GC/GC genotype

## CC[C@H](C)[C@H](NC(=O)[C@H](CC(=O)O)NC(=O)[C@H](CC(C)C)NC(=O)[C@H](Cc1c[nH]cn1)NC(=O)[C@@H]1CSSC[C@H](N)C(=O)N[C@@H](CO)C(=O)N[C@H]2CSSC[C@H](NC(=O)[C@H](CCC(=O)O)NC(=O)[C@H](CCCCN)NC(=O)[C@H](CC(=O)O)NC(=O)[C@H](CCSC)NC(=O)[C@H](CC(C)C)NC(=O)[C@H](CO)NC(=O)[C@H](CO)NC2=O)C(=O)N[C@@H](C(C)C)C(=O)N[C@@H](Cc2ccc(O)cc2)C(=O)N[C@@H](Cc2ccccc2)C(=O)N1)C(=O)N[C@H](C(=O)N[C@@H](Cc1c[nH]c2ccccc12)C(=O)O)[C@@H](C)CC [endothelin]
Skin blood circulation
  reduction of skin blood circulation: reduction of skin blood circulation is highest for the GC/GC genotype
